Reference: patent US20260034094A1, “COMPOSITIONS AND METHODS FOR INDUCING FERROPTOSIS” (Kojin Therapeutics, Inc., priority 2022, published 2026)
pEC50, pIC50: −log10 of the molar value. Where two headings read alike, the source gives them in different places.

Columns and labels:
RKN cells = assay: RKN cell profiling assay (cell viability, CellTiter-Glo); format: cell-based; details: read-out: Cell Killing EC50
Protocol: RKN cells were suspended in assay medium (F-12 medium supplemented with 10% FBS and penicillin/streptomycin) and seeded at 1,000 cells per well (30 μL total volume) in opaque white 384-well plates (Corning). Cells were allowed to adhere for 24 h at 37° C. (95% humidity, 5% CO2) and then exposed to compounds disclosed herein for 72 h, or in the present case, 96 h. DMSO stock solutions of compounds were added to cells using a D300e Digital Dispenser (Tecan). The final DMSO concentration in each well was normalized to 0.5% (v/v) after compound treatment. Cell viability was measured using CellTiter-Glo (Promega). After incubation for 15 min at room temperature, luminescence was measured using a PHERAstar FSX microplate reader (BMG Labtech). Ferroptosis rescue experiments were performed as described previously using cells treated with ferrostatin-1 (fer-1, 1.5 μM) when seeding assay plates. Dose-response data were analyzed to determine EC50 values with GraphPad Prism 9 software using a four-parameter logistic equation or CDD Vault (Collaborative Drug Discovery) using the Levenberg-Marquardt algorithm.

human recombinant GCL = human recombinant GCL (Homo sapiens (Human), UniProt P48506); assay: GCL enzyme profiling assay (ADP-Glo luminescence); format: biochemical; details: read-out: GCL IC50
Sequence of human recombinant GCL (P48506 whole entry): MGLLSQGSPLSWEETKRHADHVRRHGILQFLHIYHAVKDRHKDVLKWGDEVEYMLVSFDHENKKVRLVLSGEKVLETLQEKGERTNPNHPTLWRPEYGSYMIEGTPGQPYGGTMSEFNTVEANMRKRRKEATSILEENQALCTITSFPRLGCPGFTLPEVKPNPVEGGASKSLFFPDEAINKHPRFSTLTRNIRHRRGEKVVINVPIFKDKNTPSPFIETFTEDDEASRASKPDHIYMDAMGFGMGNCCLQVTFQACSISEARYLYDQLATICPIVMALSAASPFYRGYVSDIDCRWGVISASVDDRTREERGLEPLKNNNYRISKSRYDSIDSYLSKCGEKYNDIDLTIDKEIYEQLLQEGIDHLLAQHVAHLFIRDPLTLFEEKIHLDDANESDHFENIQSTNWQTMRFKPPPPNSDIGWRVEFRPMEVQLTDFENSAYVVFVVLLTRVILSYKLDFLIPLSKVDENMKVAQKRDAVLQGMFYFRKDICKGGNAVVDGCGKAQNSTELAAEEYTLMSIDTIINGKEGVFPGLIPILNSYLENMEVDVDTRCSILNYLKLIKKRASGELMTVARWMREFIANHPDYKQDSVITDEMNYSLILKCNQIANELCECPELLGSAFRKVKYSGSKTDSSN
Protocol: The GCL enzyme assay was run in 50 mM HEPES, pH 7.5, containing 150 mM NaCl, 30 mM MgCl2, 0.5 mM EDTA, 1 mM DTT, 0.1 mg/mL BSA, and 0.02% or in the present case 0.2% F-127 in a total assay volume of 10 μL or 10 mL. Compound in pure DMSO was stamped in assay plates (Greiner black 384-well) or appropriate containers using a D300e digital dispenser (TECAN) and the final DMSO concentration was normalized to 1%. A 5 mL, or in the present case, 5 μL mixture of human recombinant GCL (final concentration: 5 nM) and ATP (final concentration: 0.6 mM) was added and the solution was incubated at room temperature (22° C.) for 1 h. The GCL enzyme reaction was initiated by addition of a 5 μL mixture of mono g-glutamate or in the present example, monosodium glutamate (final concentration: 1 mM) and a-aminobutyrate or α-aminobutyrate (final concentration: 1.2 mM). The reaction was stopped after 1 h or in the present case, 2 h by addition of 5 mL, or in the present case, 5 μL ADP GLO Reagent (Promega). The resulting solution was incubated for 2 h at room temperature. This was then followed by addition of 5 mL, or in the present case, 5 μL ADP GLO Detection. After incubation at room temperature for 30 min, the plates were read on a plate reader (PheraStar) using a luminescence protocol to quantify the GCL enzyme activity from each reaction solution. The data was analyzed using a four-parameter logistic equation to calculate IC50.

[1] = human recombinant GCL 5 nM, 1 h preincubation with ATP

Row | SMILES | pEC50 (RKN cells; 96 h, 96 h exposure) | pIC50 (human recombinant GCL; [1]) | pEC50 (RKN cells; cell viability) | pIC50 (human recombinant GCL; human recombinant GCL, ADP-Glo)
1 | CC(C)(C)CC[S@@](=N)(=O)CC[C@H](N)C(=O)Nc1cccnc1 (single isomer, unassigned) [Compound 102] | ≤ 3.00 | < 2.70 |  | 
2 | CC(C)(C)CC[S@](=N)(=O)CC[C@H](N)C(=O)Nc1cccnc1 (single isomer, unassigned) [Compound 103] | > 3.00 | < 2.70 |  | 
3 | N=S(=O)(CCC(c1ccc(-c2ccccc2Cl)cc1)C(F)(F)F)CC[C@H](N)C(=O)O (single isomer, unassigned) [Compound 218] |  |  | ≤ 3.00 | 2.70 to 4.70
4 | C[C@@](O)(CCS(=N)(=O)CC[C@H](N)C(=O)O)C(F)(F)F (single isomer, unassigned) [Compound 322] |  |  | > 3.00 | ≥ 4.70
5 | C[C@@](O)(CCS(=N)(=O)CC[C@H](N)C(=O)O)C(F)(F)F (single isomer, unassigned) [Compound 323] |  |  | ≤ 3.00 | < 2.70
6 | C[C@](O)(CCS(=N)(=O)CC[C@H](N)C(=O)O)C(F)(F)F (single isomer, unassigned) [Compound 324] |  |  | > 3.00 | ≥ 4.70
7 | C[C@](O)(CCS(=N)(=O)CC[C@H](N)C(=O)O)C(F)(F)F (single isomer, unassigned) [Compound 325] |  |  | ≤ 3.00 | < 2.70
8 | N=S(=O)(CC[C@H](N)C(=O)O)CC[C@H](O)C(F)(F)F (single isomer, unassigned) [Compound 326] |  |  | > 3.00 | ≥ 4.70
9 | N=S(=O)(CC[C@H](N)C(=O)O)CC[C@H](O)C(F)(F)F (single isomer, unassigned) [Compound 327] |  |  | ≤ 3.00 | < 2.70
10 | N=S(=O)(CC[C@@H](O)C(F)(F)F)CC[C@H](N)C(=O)O (single isomer, unassigned) [Compound 328] |  |  | > 3.00 | ≥ 4.70
11 | N=S(=O)(CC[C@@H](O)C(F)(F)F)CC[C@H](N)C(=O)O (single isomer, unassigned) [Compound 329] |  |  | ≤ 3.00 | < 2.70
12 | N=[S@](=O)(CC[C@H](N)C(=O)O)CCC(O)(c1ccccc1)C(F)(F)F (single isomer, unassigned) [Compound 345] |  |  | ≤ 3.00 | < 2.70
13 | N=[S@@](=O)(CC[C@H](N)C(=O)O)CCC1(c2ccccc2)CCC1 (single isomer, unassigned) [Compound 392] |  |  | > 3.00 | ≥ 4.70
14 | N=S(=O)(CC[C@H](N)C(=O)O)CCC(O)(c1ccc(-c2ccc(Cl)cc2Cl)cn1)C(F)(F)F (single isomer, unassigned) [Compound 464] |  |  | ≤ 3.00 | 2.70 to 4.70
15 | N=S(=O)(CC[C@H](N)C(=O)O)CCn1ccnc1 (some centres unmarked) [Compound 7] |  | < 2.70 |  | 
16 | Cc1ccccc1OCCS(=N)(=O)CC[C@H](N)C(=O)O (some centres unmarked) [Compound 14] |  | 2.70 to 4.70 |  | 
17 | N=S(=O)(CCCc1cn[nH]c1)CC[C@H](N)C(=O)O (stereo partly drawn) [Compound 50, (2S)-4-(3-(1H-pyrazol-4-yl)propylsulfonimidoyl)-2-aminobutanoic acid] |  | 2.70 to 4.70 |  | 
18 | CC(COC(=O)c1ccccc1)OC(=O)[C@@H](N)CCS(=N)(=O)CCC(C)(C)C (some centres unmarked) [Compound 98] |  | 2.70 to 4.70 |  | 
19 | N=S(=O)(CCC1CCO1)CC[C@H](N)C(=O)O (some centres unmarked) [Compound 304] |  |  |  | 2.70 to 4.70
20 | N=S(=O)(CCC(c1ccc(Oc2ccc(Cl)cc2Cl)cc1)C(F)(F)F)CC[C@H](N)C(=O)O (some centres unmarked) [Compound 318] |  |  | > 3.00 | 
21 | N=S(=O)(CCC(CO)C(F)(F)F)CC[C@H](N)C(=O)O (some centres unmarked) [Compound 320] |  |  | > 3.00 | 
22 | N=S(=O)(CC[C@H](N)C(=O)O)CCC(O)(c1ccn(-c2ccc(Cl)cc2Cl)n1)C(F)(F)F (some centres unmarked) [Compound 336] |  |  | ≤ 3.00 | 
23 | N=S(=O)(CC[C@H](N)C(=O)O)CCC(O)(c1cc(-c2ccc(Cl)cc2Cl)cs1)C(F)(F)F (some centres unmarked) [Compound 337] |  |  | > 3.00 | 
24 | N=S(=O)(CC[C@H](N)C(=O)O)CCC(O)(c1ccc(OC2CCCCC2)cc1)C(F)(F)F (some centres unmarked) [Compound 339] |  |  | > 3.00 | 
25 | N=S(=O)(CC[C@H](N)C(=O)O)CCC(O)([C@H]1CC[C@H](c2ccc(Cl)cc2Cl)CC1)C(F)(F)F (some centres unmarked) [Compound 340] |  |  | > 3.00 | 
26 | N=S(=O)(CC[C@H](N)C(=O)O)CCC(O)([C@H]1CC[C@@H](c2ccc(Cl)cc2Cl)CC1)C(F)(F)F (some centres unmarked) [Compound 341] |  |  | > 3.00 | 
27 | N=S(=O)(CC[C@H](N)C(=O)O)CCC(O)(c1ccc(Oc2ccc(Cl)cc2Cl)cc1)C(F)(F)F (some centres unmarked) [Compound 342] |  |  | > 3.00 | 
